Source: patent US8022228B2, “Crystal form of asenapine maleate” (N.V. Organon, priority 2005, dated 2011)
Where a name gives a salt, the structure may show the parent alone.

How the values were obtained:
[1] = Particle size distribution by laser diffraction (LDS method); type: physicochemical; details: for D95 of micronization sample: after micronization, Chrispro MC200 jet mill, nitrogen, 7 bar; for D95 of crystallization sample: LDS
Description: LDS method. A dispersion liquid has been made consisting of (0.7 mg/ml) lecithin (used as a surfactant) in iso-octane saturated with asenapine maleate. The solution is stirred overnight. Subsequently the solution is filtered over a 0.22 μm filter. The samples were prepared by weighing approximately 30 mg asenapine maleate in a centrifugal tube and adding 2 ml of the dispersion liquid. Ultrasonic treatment of the samples was performed for 2 minutes in an ultrasonic bath (Transsonic 310). Subsequently, the particle size distribution of the sample was analyzed using laser diffraction (Malvern Mastersizer S, UK). The particle size distribution has been calculated using the Fraunhofer algorithm.

[2] = Micronization in jet mill, polymorphic form of the product by XRPD; type: physicochemical; details: polymorphic form after micronization at 7 bar
Description: X-ray powder diffraction (XRPD) spectra were obtained on an […] Panalytical Reflection diffractometer in a Bragg-Brantano setup, Cu-Kα radiation, settings 45 kV and 40 mA together with an X'celerator detector. The slits used: anti-scatter slit 1°, divergence slit 1⁄2°, soller slits 0.02 rad. Measuring conditions: scan range 5-40°2-[…] (θ), step size 0.0167°2-[…]. The samples were measured on a rotating sample disk of Si with a speed of 15 rpm.

[3] = known crystalline form, Funke et al.; cited from earlier work
[4] = Particle size observed in micrographs / microscopic picture; type: physicochemical; details: non-micronized crystallized batch

In the case of `CN1CC2c3ccccc3Oc3ccc(Cl)cc3C2C1` (centres unmarked) [batch M3, asenapine maleate], the “D95 of micronization sample” value ([1]; listed as M3) is reported as <16 μm and the “polymorph of micronization sample” value ([2]; listed as M3) is reported as 80% orthorhombic, 20%.

For `CN1CC2c3ccccc3Oc3ccc(Cl)cc3C2C1.O=C(O)/C=C\C(=O)O` (centres unmarked) [asenapine maleate], the “size of crystalline particles as observed in micrographs” value [3] is given as “over 100 μm”.

With `CN1CC2c3ccccc3Oc3ccc(Cl)cc3C2C1` (centres unmarked) [batch C2, asenapine maleate] the “D95 of crystallization sample” value ([1]; non-micronized crystallized batch, listed as C2) was 221 μm.

For `CN1CC2c3ccccc3Oc3ccc(Cl)cc3C2C1` (centres unmarked) [batch C1, asenapine maleate], the “D95 of crystallization sample” value ([1]; non-micronized crystallized batch, listed as C1) was 199 μm.

For `CN1CC2c3ccccc3Oc3ccc(Cl)cc3C2C1` (centres unmarked) [batch M7, asenapine maleate], the “D95 of micronization sample” value ([1]; listed as M7) was <12 μm and the “polymorph of micronization sample” value ([2]; listed as M7) was >95% orthorhombic.

With `CN1CC2c3ccccc3Oc3ccc(Cl)cc3C2C1` (centres unmarked) [batch M2, asenapine maleate] the “D95 of micronization sample” value ([1]; listed as M2) was <14 μm and the “polymorph of micronization sample” value ([2]; listed as M2) was >95% monoclinic.

With `CN1CC2c3ccccc3Oc3ccc(Cl)cc3C2C1` (centres unmarked) [batch C5, asenapine maleate] the “average particle size by LDS” value ([1]; non-micronized crystallized batch) was ~30 μm, the “D95 of crystallization sample” value ([1]; non-micronized crystallized batch, listed as C5) was 30-100 μm and the “particle size in microscopic picture” value [4] was “up to 100 μm”.

With `CN1CC2c3ccccc3Oc3ccc(Cl)cc3C2C1` (centres unmarked) [batch M5, asenapine maleate] the “D95 of micronization sample” value ([1]; listed as M5) was <6 μm and the “polymorph of micronization sample” value ([2]; listed as M5) was >95% orthorhombic.

For `CN1CC2c3ccccc3Oc3ccc(Cl)cc3C2C1` (centres unmarked) [batch M1, asenapine maleate], the “D95 of micronization sample” value ([1]; listed as M1) was <12 μm and the “polymorph of micronization sample” value ([2]; listed as M1) was >95% orthorhombic.

In the case of `CN1CC2c3ccccc3Oc3ccc(Cl)cc3C2C1` (centres unmarked) [batch M6, asenapine maleate], the “D95 of micronization sample” value ([1]; listed as M6) is reported as <10 μm and the “polymorph of micronization sample” value ([2]; listed as M6) is reported as >95% orthorhombic.

In the case of `CN1CC2c3ccccc3Oc3ccc(Cl)cc3C2C1` (centres unmarked) [batch M4, asenapine maleate], the “D95 of micronization sample” value ([1]; listed as M4) is reported as <9 μm and the “polymorph of micronization sample” value ([2]; listed as M4) is reported as >95% orthorhombic.
